Source: PubChem BioAssay AID248 (DTP/NCI, 2004)
Several values for one entry are separate records, joined by “and”; a condition that tells them apart may be missing. Equal entries are not always repeated. Toxic doses and inconclusive results are not listed. Cut-off read from the data, not from the text of the source: active = T/C of 150% or more; inactive = T/C below 125%.

System: L1210 leukemia ip in BDF1 mice, survival T/C
Assay: NCI In Vivo Anticancer Drug Screen. Data for tumor model L1210 Leukemia (intraperitoneal) in B6D2F1 (BDF1) mice
Details: endpoint: mean survival time, higher = longer survival
Summary of the method: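 In this screen, tumor-bearing mice given compound are compared to those given vehicle, and their survival values are reported as a treated-to-control quotient.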

[1] = dose: 100.0 mg/kg/injection, schedule: Q04DX003 (ip), vehicle: saline
[2] = dose: 200.0 mg/kg/injection, schedule: Q04DX003 (ip), vehicle: saline
[3] = dose: 400.0 mg/kg/injection, schedule: Q04DX003 (ip), vehicle: saline
[4] = dose: 25.0 mg/kg/injection, schedule: Q04DX003 (ip), vehicle: Klucel (hydroxypropylcellulose) (HPC)
[5] = dose: 50.0 mg/kg/injection, schedule: Q04DX003 (ip), vehicle: Klucel (hydroxypropylcellulose) (HPC)
[6] = dose: 100.0 mg/kg/injection, schedule: Q01DX001 (ip), vehicle: carboxymethylcellulose (CMC)
[7] = dose: 200.0 mg/kg/injection, schedule: Q01DX001 (ip), vehicle: carboxymethylcellulose (CMC)
[8] = dose: 400.0 mg/kg/injection, schedule: Q01DX001 (ip), vehicle: carboxymethylcellulose (CMC)
[9] = dose: 100.0 mg/kg/injection, schedule: Q01DX009 (ip), vehicle: Klucel (hydroxypropylcellulose) (HPC)
[10] = dose: 200.0 mg/kg/injection, schedule: Q01DX009 (ip), vehicle: Klucel (hydroxypropylcellulose) (HPC)
[11] = dose: 400.0 mg/kg/injection, schedule: Q01DX009 (ip), vehicle: Klucel (hydroxypropylcellulose) (HPC)
[12] = dose: 75.0 mg/kg/injection, schedule: Q01DX001 (ip), vehicle: carboxymethylcellulose (CMC)
[13] = dose: 150.0 mg/kg/injection, schedule: Q01DX001 (ip), vehicle: carboxymethylcellulose (CMC)
[14] = dose: 300.0 mg/kg/injection, schedule: Q01DX001 (ip), vehicle: carboxymethylcellulose (CMC)
[15] = dose: 100.0 mg/kg/injection, schedule: Q01DX001 (ip), vehicle: saline
[16] = dose: 200.0 mg/kg/injection, schedule: Q01DX001 (ip), vehicle: saline

Measured: T/C

COC(=O)C1C(O)C(C)C(O)OC1C(C)C(O)C(C)/C=C\C=C(/C)C(=O)Nc1c(C)c(OC(C)=O)c2c(c1O)C(=O)C(C)=C1OCOC(/C(C)=C/C(C)=O)=C12 (centres undefined)
inactive: [1] 95 % of control | [2] 102 % of control | [3] 93 % of control

O=C(O)c1cc(Cl)cc(F)c1Cl
inactive: dose: 100.0 mg/kg/injection, schedule: Q04DX002 (ip), vehicle: Klucel (hydroxypropylcellulose) (HPC) 101 % of control | dose: 200.0 mg/kg/injection, schedule: Q04DX002 (ip), vehicle: Klucel (hydroxypropylcellulose) (HPC) 105 % of control | dose: 400.0 mg/kg/injection, schedule: Q04DX002 (ip), vehicle: Klucel (hydroxypropylcellulose) (HPC) 105 % of control

C[N+](C)(C)C1(Cc2ccc(Cl)cc2)c2ccccc2-c2ccccc21
inactive: dose: 12.5 mg/kg/injection, schedule: Q01DX009 (ip), vehicle: Klucel (hydroxypropylcellulose) (HPC) 97 % of control | dose: 12.5 mg/kg/injection, schedule: Q04DX003 (ip), vehicle: Klucel (hydroxypropylcellulose) (HPC) 95 % of control | dose: 25.0 mg/kg/injection, schedule: Q01DX009 (ip), vehicle: Klucel (hydroxypropylcellulose) (HPC) 92 % of control | [4] 95 % of control | dose: 50.0 mg/kg/injection, schedule: Q01DX009 (ip), vehicle: Klucel (hydroxypropylcellulose) (HPC) 98 % of control | [5] 92 % of control

O=[N+]([O-])c1ccccc1SSc1ccccc1[N+](=O)[O-]
inactive: dose: 50.0 mg/kg/injection, schedule: Q01DX001 (ip), vehicle: carboxymethylcellulose (CMC) 105 % of control | [6] 94 % of control | dose: 100.0 mg/kg/injection, schedule: Q01DX009 (ip), vehicle: saline with Tween-80 95 % of control | [7] 109 % of control | dose: 200.0 mg/kg/injection, schedule: Q01DX009 (ip), vehicle: saline with Tween-80 98 % of control | [8] 100 % of control | dose: 400.0 mg/kg/injection, schedule: Q01DX009 (ip), vehicle: saline with Tween-80 98 % of control

Cc1ccc(N=Nc2ccc(C)cc2NC(=O)C2CC2)cc1
inactive: [9] 97 % of control | [10] 97 % of control | [11] 97 % of control

CCOC(=O)C(NC=O)C(=O)OCC
inactive: dose: 25.0 mg/kg/injection, schedule: Q01DX009 (ip), vehicle: saline 101 % of control | dose: 50.0 mg/kg/injection, schedule: Q01DX009 (ip), vehicle: saline 101 % of control | dose: 100.0 mg/kg/injection, schedule: Q01DX009 (ip), vehicle: saline 101 % of control | dose: 200.0 mg/kg/injection, schedule: Q01DX009 (ip), vehicle: saline 103 % of control | dose: 400.0 mg/kg/injection, schedule: Q01DX009 (ip), vehicle: saline 98 % of control

NC(N)=N/N=C/c1cccnc1
inactive: dose: 15.0 mg/kg/injection, schedule: Q01DX Z (oral), vehicle: saline 97 % of control | dose: 30.0 mg/kg/injection, schedule: Q01DX Z (oral), vehicle: saline 97 % of control | dose: 60.0 mg/kg/injection, schedule: Q01DX Z (oral), vehicle: saline 97 % of control and 100 % of control | dose: 120.0 mg/kg/injection, schedule: Q01DX Z (oral), vehicle: saline 96 % of control and 107 % of control | dose: 240.0 mg/kg/injection, schedule: Q01DX Z (oral), vehicle: saline 94 % of control | dose: 480.0 mg/kg/injection, schedule: Q01DX Z (oral), vehicle: saline 89 % of control

O=[N+]([O-])c1ccc(C(SCc2ccccc2)SCc2ccccc2)cc1
inactive: [12] 97 % of control | [13] 100 % of control | [14] 97 % of control

O=C(O)c1ccccc1NC(=S)c1ccccc1
inactive: dose: 25.0 mg/kg/injection, schedule: Q04DX002 (ip), vehicle: other 96 % of control | dose: 50.0 mg/kg/injection, schedule: Q04DX002 (ip), vehicle: other 96 % of control | dose: 100.0 mg/kg/injection, schedule: Q04DX002 (ip), vehicle: other 93 % of control and 104 % of control

Nc1ccc2ncccc2c1 (tested in a mixture with another compound)
inactive: dose: 100.0 mg/kg/injection, schedule: Q04DX003 (ip), vehicle: gum acacia 100 % of control | dose: 200.0 mg/kg/injection, schedule: Q04DX003 (ip), vehicle: gum acacia 91 % of control | dose: 400.0 mg/kg/injection, schedule: Q04DX003 (ip), vehicle: gum acacia 100 % of control

Cn1cnc([N+](=O)[O-])c1[Se]c1ncnc2nc[nH]c12
inactive: dose: 12.5 mg/kg/injection, schedule: Q01DX005 (ip), vehicle: other 89 % of control | dose: 50.0 mg/kg/injection, schedule: Q01DX005 (ip), vehicle: other 87 % of control

CC(=O)CCCCCCCCCCC1CCC2OC12 (centres undefined)
inactive: dose: 100.0 mg/kg/injection, schedule: Q01DX001 (ip), vehicle: other 101 % of control | dose: 100.0 mg/kg/injection, schedule: Q01DX009 (sc), vehicle: other 109 % of control | dose: 100.0 mg/kg/injection, schedule: Q04DX003 (ip), vehicle: other 95 % of control | dose: 200.0 mg/kg/injection, schedule: Q01DX001 (ip), vehicle: other 115 % of control | dose: 200.0 mg/kg/injection, schedule: Q01DX009 (sc), vehicle: other 98 % of control | dose: 200.0 mg/kg/injection, schedule: Q04DX003 (ip), vehicle: other 94 % of control | dose: 400.0 mg/kg/injection, schedule: Q01DX001 (ip), vehicle: other 106 % of control | dose: 400.0 mg/kg/injection, schedule: Q01DX009 (sc), vehicle: other 97 % of control | dose: 400.0 mg/kg/injection, schedule: Q04DX003 (ip), vehicle: other 102 % of control

c1ccc(C(c2ccccc2)[Si](c2ccccc2)(c2ccccc2)c2ccccc2)cc1
inactive: dose: 100.0 mg/kg/injection, schedule: Q04DX002 (ip), vehicle: saline with Tween-80 90 % of control | dose: 200.0 mg/kg/injection, schedule: Q04DX002 (ip), vehicle: saline with Tween-80 97 % of control

CC1=CC(C)(C(Cl)(Cl)Cl)C(C)=C/C1=N/O (centres undefined)
inactive: [9] 99 % of control | [10] 89 % of control

O=C1C=C(NCCCCC2CCCCC2)c2ccccc2C1=O
inactive: [15] 95 % of control | [16] 97 % of control | dose: 400.0 mg/kg/injection, schedule: Q01DX001 (ip), vehicle: saline 91 % of control

CCOC(=O)Nc1cc(NC(c2ccccc2)c2ccccc2)c(N)c(N)n1
inactive: [6] 102 % of control | [9] 98 % of control | [7] 122 % of control | [10] 98 % of control | [8] 107 % of control | [11] 91 % of control

CCOC(=O)CSc1ccc2ccccc2[n+]1-c1ccccc1
inactive: [15] 99 % of control | [16] 94 % of control

COC[CH2][Hg][O]C(C)=O
inactive: dose: 3.12 mg/kg/injection, schedule: Q04DX002 (ip), vehicle: Klucel (hydroxypropylcellulose) (HPC) 98 % of control | dose: 6.25 mg/kg/injection, schedule: Q04DX002 (ip), vehicle: Klucel (hydroxypropylcellulose) (HPC) 92 % of control | dose: 12.5 mg/kg/injection, schedule: Q04DX002 (ip), vehicle: Klucel (hydroxypropylcellulose) (HPC) 88 % of control and 90 % of control

O=C1CCCCCCCCCC/C1=N/O
inactive: dose: 100.0 mg/kg/injection, schedule: Q01DX001 (ip), vehicle: Klucel (hydroxypropylcellulose) (HPC) 111 % of control | dose: 200.0 mg/kg/injection, schedule: Q01DX001 (ip), vehicle: Klucel (hydroxypropylcellulose) (HPC) 101 % of control | dose: 400.0 mg/kg/injection, schedule: Q01DX001 (ip), vehicle: Klucel (hydroxypropylcellulose) (HPC) 92 % of control

O=CNc1ccc(Cl)cc1
inactive: [4] 92 % of control | [5] 92 % of control | dose: 100.0 mg/kg/injection, schedule: Q04DX003 (ip), vehicle: Klucel (hydroxypropylcellulose) (HPC) 87 % of control | dose: 200.0 mg/kg/injection, schedule: Q04DX003 (ip), vehicle: Klucel (hydroxypropylcellulose) (HPC) 97 % of control

CCCCCCCCCC(=O)N1CCC(CCCc2ccccc2)CC1
inactive: [12] 95 % of control | [13] 92 % of control | [14] 95 % of control

Nc1ncnc(N)c1NC(=O)c1cccc(C(=O)c2ccccc2)c1
inactive: [1] 101 % of control | [2] 100 % of control | [3] 96 % of control
